# According to patent US6949506B2, “Relaxin-like factor and methods and uses thereof” (BAS Medical, Inc., priority 1995, dated 2005):
# Entries after “also recorded” stand apart in the source; their conditions may differ. Positions of bridges follow the written chain, without caps; N, C: chain ends. Chains are numbered I, II in the order given. No end group written: not given here.
# Columns and labels:
# [1] = tested on: symphysis pubis of ovariectomized estrogen-primed female mice; experiment: Mouse symphysis pubis (interpubic ligament) assay; format: in vivo
# Procedure: Mouse interpubic ligament assays were performed essentially as described by Steinetz, et al., 1960, Endocrinology 67:102-115. Ovariectomized virgin female mice were printed with 5 μg estrogen cypionate in 100 μl sesame oil. Five days later the mice were injected subcutaneously with human relaxin, RLF, or mixtures of human relaxin and RLF in 100 μl of 0.1% benzopurpurin 4B. Specifically, groups of five animals received either human relaxin at a suboptimal dose or a mixture of 0.2 μg, 0.4 μg and 0.8 μg human relaxin and 5 μg of RLF as given in FIG. 8. For negative control 100 μl of 0.1% benzopurpurin 4B in water were injected. After 16 hours the mice were killed in an atmosphere of CO2, the symphysis pubis dissected free, and the distance between the interpubic bones measured with a dissecting microscope fitted with transilluminating fiber optics.
# [2] = target: T1, insulin receptor (Homo sapiens, UniProt P06213); experiment: Insulin-receptor binding assay on crude membrane preparations of term placenta; conditions: term placenta crude membranes; 125I-iodo-TyrA14 porcine insulin tracer
# T1 construct: crude membrane preparations of term placenta; from tissue; host or cells: term placenta, crude membranes
# Procedure: Insulin-receptor binding assays were performed on crude membrane preparations of term placenta, as described in Hock and Hollenberg, 1980, J. Biol. Chem. 255:10731-10736, using ^125I-iodo-Tyr^A14 porcine insulin as tracer according to the method of Linde, et al., 1986, J. Chromatogr. 369:327-339.
# The assays were performed in HMS-buffer (25 mM HEPES, 104 mM NaCl, 5 mM MgCl2, 0.2% bovine serum albumin; pH 7.4) in a total volume of 100 μl. Labeled insulin (50,000 cpm/assay, 150 pM) and variable amounts of insulin were incubated with crude membranes for 1 h at room temperature. Thereafter 1 ml of buffer was added, the membranes collected by centrifugation in a microcentrifuge at 14,000 rpm for 5 min, the supernatant discarded, and the tip of the Eppendorf vial cut off and counted in a γ-counter (Minigamma, LKB, Sweden). To determine nonspecific binding unlabeled insulin was used at a concentration of 2 μl/ml (0.33 μM) and nonspecific binding was usually below 10% of the total binding.
# [3] = tested on: mouse brain relaxin receptor; experiment: Relaxin-binding assay, mouse brain crude membranes, porcine relaxin tracer
# Procedure: (§1) Relaxin-binding assays were performed as described in Yang, et al., 1992, Endocrinology 130:179-185 and Büllesbach, et al., 1994, Endocrine. 2:1115-1120, using crude membrane preparations of mouse tissue. Mouse brains of 2 mice were collected into 15 ml of chilled buffer (25 mM HEPES, 0.14 M NaCl, 5.7 mM KCI, 0.2 mM phenylmethylsulfonyl-fluoride, and 80 mg/ml soybean trypsin inhibitor, pH 7.5) supplemented with sucrose (0.25 M, final concentration). The tissue was homogenized on ice for 10 s with a Polytron homogenizer (Brinlmann, Westbury, N.Y.) at setting 5. The homogenate was centrifuged at 700 rpm for 10 min at 4° C. and the supernatants were recentrifuged at 10,000×g for 1 h. The pellet was resuspended in 15 ml of ice cold binding buffer, 25 mM HEPES, 0.14 M NaCl, 5.7 mM KCI, 0.2 mM phenylmethylsulfonylfluoride, and 80 mg/ml soybean trypsin inhibitor, pH 7.5, supplemented with 1% bovine serum albumin, and centrifuged for 1 h at 10,000×g. The crude membrane preparation was suspended in 1 ml of binding buffer and 40 μl was used per assay. The assay was performed using 40 μl of tracer (about 100,000 cpm of porcine relaxin tracer=150 pM) and 20 μl of relaxin at various concentrations. The assay was incubated for 1 h at room temperature, and the suspension diluted with 1 ml of wash buffer (25 mM HEPES, 0.14 M NaCl, 5.7 mM KCI, 1% bovine serum albumin, 0.01% NaN3) and centrifuged in Eppendorf centrifuge at 14,000 rpm for 10 min. The supernatant was discarded, the tip of the vial cut and counted in a γ-counter. Nonspecific binding was determined in the presence of 2 μl/ml of unlabeled competitor (0.33 μM). In a typical experiment the specific binding was between 25% and 40% of the total binding.
# [4] = tested on: procollagenase expression, rheumatoid synovial fibroblasts (Strain No. RSF112); experiment: Stimulation of procollagenase expression by synovial fibroblasts (gelatin zymography); format: cell-based, human
# Description: A method for detecting and measuring procollagenase formation is described in Unemori, et al., 1991, J. Biol. Chem. 266:23477-482. Such method was modified to measure the expression of procollagenase in the presence of RLF as follows: Materials And Methods. Rheumatoid synovial fibroblasts (Strain No. […] Conditioned media were collected and an aliquot analyzed by gelatin zymography. Procollagenase was identified as a […] doublet at 52/57 kDa. The intensity of the doublet (i.e., the amount of procollagenase expressed, was quantified by scanning densitometry.
# [5] = tested on: collagen expression, rheumatoid synovial fibroblasts (Strain No. RSF64); experiment: Inhibition of collagen expression by synovial fibroblasts; format: cell-based, human; conditions: 100 ng/ml (each); TGF-β-treated fibroblasts
# Procedure: The method for detecting and measuring collagen formation in the presence of relaxin described in Unemori and Amento, 1990, J. Biol. Chem. 265:10681-685 has been modified as follows to determine the ability of RLF, in vitro, to modulate the expression of collagen. Materials and Methods. Rheumatoid synovial fibroblasts (Strain No. […] The cells were simultaneously biosynthetically labelled with ^3H=[…] μCi/ml) in the presence of ascorbate and BAPN. After 24 hours, the conditioned media were collected and electrophoresed on 4-12% polyacrylamide gels (NOVEX) under reducing conditions. Gels were enhanced, dried, and exposed to X-ray films for 1-2 weeks. Collagen bands were identified on the X-ray films as bacterial collagenase-sensitive, proline-incorporating bands between 95-200 kDa. Band density was quantified by scanning densitometry and used as estimates of collagen expression.
# [6] = target: T2, RLF receptor (brain) (Mus musculus, UniProt Q91ZZ5); experiment: Binding assay, mouse brain crude membranes, hRLF tracer
# T2 construct: from tissue; host or cells: mouse brain, crude membranes
# Procedure: as §1, with “The crude membrane preparation was suspended in 1 ml of binding buffer and 40 μl was used per assay. The assay was performed using 40 μl of tracer (about 100,000 cpm of porcine relaxin tracer=150 pM) and 20 μl of relaxin at various concentrations. The assay was incubated for 1 h at room temperature, and the suspension diluted with 1 ml of wash buffer (25 mM HEPES, 0.14 M NaCl, 5.7 mM KCI, 1% bovine serum albumin, 0.01% NaN3) and centrifuged in Eppendorf centrifuge at 14,000 rpm for 10 min.” left out, “In a typical experiment the specific binding was between 25% and 40% of the total binding.” left out
# Tissue specificity was determined using crude membrane preparations of leg muscles, kidneys, liver. brain, and uterus (of estrogen primed mice). […] Binding was based on protein concentration determined by Lowry. […]
# T2 sequence (Q91ZZ5 whole entry): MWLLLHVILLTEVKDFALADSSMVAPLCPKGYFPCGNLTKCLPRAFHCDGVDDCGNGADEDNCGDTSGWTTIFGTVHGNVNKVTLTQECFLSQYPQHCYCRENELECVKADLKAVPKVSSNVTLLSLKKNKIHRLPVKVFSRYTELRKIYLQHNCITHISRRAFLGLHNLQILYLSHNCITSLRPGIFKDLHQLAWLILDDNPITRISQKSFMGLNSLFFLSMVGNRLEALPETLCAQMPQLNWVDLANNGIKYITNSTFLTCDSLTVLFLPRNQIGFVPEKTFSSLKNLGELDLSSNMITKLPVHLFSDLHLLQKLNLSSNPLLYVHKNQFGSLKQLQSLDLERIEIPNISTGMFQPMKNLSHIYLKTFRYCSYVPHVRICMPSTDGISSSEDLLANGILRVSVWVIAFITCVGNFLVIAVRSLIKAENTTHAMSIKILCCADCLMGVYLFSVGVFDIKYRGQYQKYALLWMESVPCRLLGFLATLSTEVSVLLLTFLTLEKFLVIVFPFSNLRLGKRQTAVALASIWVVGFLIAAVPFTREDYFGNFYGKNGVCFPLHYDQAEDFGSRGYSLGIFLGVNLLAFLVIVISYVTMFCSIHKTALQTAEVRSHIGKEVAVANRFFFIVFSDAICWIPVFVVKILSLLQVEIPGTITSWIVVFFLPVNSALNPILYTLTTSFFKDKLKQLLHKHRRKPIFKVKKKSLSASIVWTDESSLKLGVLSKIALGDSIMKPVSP
substance,measurement,setting,value
"RLF: synthesized human relaxin-like factor, two-chain peptide (A and B chain, SEQ ID NOS:3 and 4), three disulfide links (alpha AAATNPARYCCLSGCTQQDLLTLCPY; beta PTPEMREKLCGHHFVRALVRVCGGPRWSTEA; disulfide I:11-II:10; also: two further disulfide bonds, places not given here)",effect on the activity of human relaxin in the mouse bioassay,"[1]; 0.2, 0.4, 0.8 μg human relaxin with 5 μg RLF",significantly increased the activity of human relaxin
same,optimal RLF amount for relaxin enhancement,[1]; in the presence of 0.5 μg of human relaxin,5 µg
same,effect of RLF on the relaxin effect at maximal dose,[1]; maximal dose of both,still augmented
same,"symphyseal widening, RLF alone","[1]; subcutaneous, 16 hours",no effect; also recorded: does not cause symphyseal widening
same,binding to the insulin receptor,[2],does not bind with any significant degree
same,crossreactivity with the brain relaxin receptor,[3]; mouse brain,moderate crossreactivity
same,excess that displaces 50% of the relaxin tracer,[3]; mouse brain relaxin receptor preparation,hundred-fold
same,50% Binding,"[3]; mouse brain, tracer pRLX",200 ng
same,stimulation of procollagenase expression,[4]; 1 ng/ml,0 fold
same,stimulation of procollagenase expression,[4]; 10 ng/ml,2.0 fold
same,stimulation of procollagenase expression,[4]; 100 ng/ml,4.2 fold
same,decrease of TGF-β-stimulated collagen expression,[5],17%
same,50% Binding,[6],0.3 ng
